Test [1] concerns NRAS mutant melanoma cells. The test can be described thus: Telomere dysfunction-induced foci (TIF) assay, IF-FISH. In kind it is cell-based, Human. The following applies: WM3000 cells transduced with TERT shRNA, NAC 1 mM for 7 days. The protocol:
NRAS mutant melanoma cells WM3000 were transduced with TERT shRNA and treated with NAC (mM) for 7 days. […] Representative images are shown. (scale bar=10 μm). Quantification of TIF positive cells is plotted in FIG. 13b. Cells were scored as TIF positive when three or more g-H2AX foci (green) were co-localizing with telomere foci (red). Data represent average of thirteen fields imaged +/−SD.
NRAS^mut melanoma cells were treated with 6-thio-dG for 6, 12 or 18 days. As presented in FIG. 15a, relative cell number was assessed by Crystal Violet assay and calculated relative to DMSO-treated cells. Data represent average of three independent experiments +/−SD. […] NRAS^mut cells were treated with 6-thio-dG for 7 days and telomere induced foci (TIF) was determined by indirect immunofluorescence combined with fluorescence in situ hybridization (FISH) (FIG. 15c). […] Quantification of TIF assay is plotted in FIG. 15d. Cells were scored as TIF positive when four or more γ-H2AX foci (green, center row of FIG. 15c labelled as γH2AX) were co-localizing with telomere foci (red, top row of FIG. 15c labelled as Telomeres). […] P values were calculated by unpaired Student's t-test.
For TIF analysis, indirect immunofluorescence (IF) combined with fluorescence in situ hybridization (FISH) was performed as previously described with some modifications. […] TIF were quantified from at least three independent experiments.

Test [2] has as its system NRAS mutant melanoma spheroids. The test can be described thus: 3D collagen-embedded tumor spheroids, Live/Dead staining. The format is cell-based, Human. Particulars: 6-thio-dG 5 μM and Ganetespib 5 μM, day 7. The protocol: FIGS. 6a to 6e provide results showing that combining 6-thio-dG and Gamitrinib inhibits the growth of 3D melanoma spheroids and NRAS-mutant xenograft tumors. […] 4a to 4e. On day 7, spheroids were stained with Calcein AM (live cells; green) and EtBr (dead cells; red) and imaged using an inverted microscope (4X; scale bar=250 μm). […] P values were calculated using unpaired Student's t-test. *p<0.05, ** p<0.01, ***p<0.005, when comparing vehicle control vs. combination treatment groups. As presented in FIG. 6d, treatment was discontinued after 14 days, and mice were followed until tumor volume reached a preset volume (1500 mm^3). Kaplan Meier survival curves of mice treated for 14 days. p-values were calculated by Mantel-Cox log-rank test; *p<0.05, **p<0.01, ***p<0.005. Animal weight (grams) before treatment (Start of TX) and at the end of the study (End of TX) was assessed, recorded for every mouse enrolled in the study and plotted in FIG. 6e. Mean and SEM are depicted (n=7 mice/treatment group). Statistical significance was assessed by unpaired Student's t-test.
In FIG. 17a, NRAS^mut melanoma cells were treated with 6-thio-dG (1 μM) for 7 days total. At day 5, culture medium was replaced and cells were treated with 1 μM 6-thiodG plus 1 mM Phenformin for two more days. Percent cell death was determined by flow cytometry following staining of cells with Annexin V and Propidium iodide. […]

Another test concerns SOD2. The following applies: Siegelin et al., 2011; cited from earlier work.
Test [3] deals with NRAS-WT/BRAF-WT melanoma cells. The test can be described thus: Cell death by Annexin V/PI flow cytometry. The format is cell-based, Human. Particulars: 1 μM 6-thio-dG, 5 μM Gam, single agents or in combination. The protocol:
(§1) FIGS. 5a to 5e provide bar graphs showing that combination treatment with 6-Thio-dG and Gamitrinib (Gam) triggers death selectively in NRAS mutant tumor cells. NRAS-WT/BRAF-WT melanoma cells (FIG. 5a), NRAS-WT/BRAF-mut melanoma cells (FIG. 5b), NRAS mutant neuroblastoma cells (FIG. 5c), NRAS-WT/KRAS-mutant colon cancer cells (FIG. 5d), and NRAS-WT/KRAS-mutant lung cancer cells were treated with 1 μM 6-thio-dG for 5 days (FIG. 5e). At day 5, culture medium was replaced and cells treated with 1 μM 6-thio-dG plus 5 μM Gam for two more days. Cells were stained with Annexin V and PI and percent cell death was determined by FACS. Data represent average of three independent experiments +/−SEM; p values were calculated using un-paired Student's t-test; *p<0.05; **p<0.001.
(§2) Cells were seeded in 96-well plates and treated with drugs. After 6 days, cell viability was assessed following 6h incubation with […] Alamar Blue (ThermoFisherScientific, Philadelphia, Pa.) by measuring fluorescence using an EnVision Xcite Multilabel plate reader (Perkin Elmer, Waltham, Mass.). Cell death was determined by flow cytometry using PSVue-643 (Molecular Targeting Technologies) or Annexin V (640919, Biolegend, San Diego, Calif.) and Propidium Iodide (Sigma) staining. Samples were analyzed using a BD LSRII flow cytometer (BD Biosciences, San Jose, Calif.).
A general note: In flow cytometry, cells or beads pass a laser one at a time.

Test [4] deals with BRAF mutant melanoma cells. The test can be described thus: Cell death by Annexin V/PI flow cytometry. In kind it is cell-based, Human. Particulars: 1 μM 6-thio-dG, 5 μM Gam, single agent or in combination. As to the method:
as §1, §2

Test [5] deals with NRAS mutant SKNAS neuroblastoma cells. The test can be described thus: Cell death by Annexin V/PI flow cytometry. The format is cell-based. The following applies: 1 μM 6-thio-dG, 5 μM Gam, single agents or in combination. As to the method: as §1, §2
The next test relates to KRAS mutant A549 cells. The test can be described thus: Cell death by Annexin V/PI flow cytometry. The format is cell-based. Particulars: 1 μM 6-thio-dG, 5 μM Gam. The protocol:
as §1, §2

Another test deals with KRAS mutant HCT116 cells. Put plainly: Cell death by Annexin V/PI flow cytometry. The following applies: 1 μM 6-thio-dG, 5 μM Gam. In kind it is cell-based. The protocol: as §1, §2
The subject of test [6] is NRAS mutant melanoma cells. Put plainly: Cell death by flow cytometry (PSVue or Annexin V/PI). In kind it is cell-based, Human. Particulars: cells transduced with TERT shRNA, 7 days post infection 5 μM Gamitrinib for 48 h. As to the method:
FIGS. 2a to 2c show NRAS^mut melanoma cells (FIG. 2a), BRAF-V600E/NRAS mutant cells derived from melanoma patients resistant to BRAF/MEK inhibitors (FIG. 2b), or non-transformed melanocytes and fibroblasts (FIG. 2c) were treated with 6-thio-dG for 7 days. Cell viability was measured by Alamar Blue assay and calculated relative to DMSO-treated cells. […] Cell death was assessed by PSVUe staining. Percent of apoptotic cells is shown. […] Mean TRF length expressed as kilobase pairs is indicated at the bottom. […] FIG. 2g provides a bar graph showing that DNA damage was assessed by γH2AX staining. Data represent average from three independent experiments ±SEM. *p<0.05; **p<0.01; ***p<0.005 in unpaired Student's t-test. As presented in FIG. 2h, mice bearing established WM3000 or M93-047 NRAS^mut tumors were treated with vehicle control or 6-thio-dG (2.5 mg/kg i.p; q.d). Tumor volume was measured and average tumor volume (n=4) ±SEM was plotted vs. time.
FIGS. 3a to 3g provides graphs showing that telomere dysfunction enhances oxidative stress leading to upregulation of an antioxidant program. […] Mitochondrial superoxide production was measured by MitoSox Red fluorescence (FIGS. 3c, and 3d) and expressed as fluorescence relative to vector or DMSO controls. […] FIG. 3f provides a bar graph showing that SOD2 was silenced using shRNA. Transduced M93-047 cells were treated with DMSO or 1 μM of 6-thio-dG and cell death was assessed by Annexin V/PI straining. As presented in FIG. 3g, M93-047 cells were transduced with a SOD2 lentiviral construct or empty vector control (pLX304). Transduced cells were treated with increasing doses (1, 2.5 and 5 μM) of 6-thio-dG for 7 days and cell death was assessed. Data represent average from three independent experiments ±SEM. *p<0.05; **p<0.01; ***p<0.005 in unpaired Student's t-test.
FIGS. 4a to 4e provides bar graphs showing that induction of telomere and mitochondrial dysfunction triggers cell death in NRAS mutant melanoma. […] Cell death was assessed by Annexin V and PI staining. […] Cells were stained with Annexin V and PI and percent cell death was determined by flow cytometry. […] P values were calculated using unpaired Student's t-test; * p<0.05; *** p<0.005.
As presented in FIG. 16a, SOD2 was silenced using shRNA. Transduced WM3000 cells were treated with DMSO or 1 μM of 6-thio-dG and cell death was assessed by Annexin V/PI straining. […] Transduced cells were treated with increasing doses (1, 2.5 and 5 μM) of 6-thio-dG for 10 days and cell death was assessed. […]
In FIG. 17a, NRAS^mut melanoma cells were treated with 6-thio-dG (1 μM) for 7 days total. […] Percent cell death was determined by flow cytometry following staining of cells with Annexin V and Propidium iodide. […]

For test [7], the system named is prostate, breast and lung cancer, BRAF-V600E-mutant melanoma. Particulars: Chae et al., 2012; cited from earlier work.
The test system of the next test is NRAS mutant cells. The following applies: Chae et al., 2012; cited from earlier work.
The conditions of test [8]: literature; cited from earlier work.
The conditions of test [9]: literature; cited from earlier work. The source holds these as a separate data set.

For the molecule `CC(=O)N[C@@H](CS)C(=O)O` [NAC, N-acetyl-L-cysteine], the “number of TIF” value in test [1] is listed as “attenuated the number of TIF”.

On to `CC(C)c1cc(-c2n[nH]c(=O)n2-c2ccc3c(ccn3C)c2)c(O)cc1O` [ganetespib], for which the “enhancement of 6-Thio-dG efficacy in spheroids” value in test [2] is recorded as “did not enhance the efficacy of 6-Thio-dG”.

As for Gamitrinib, the SOD2 levels result in the test on SOD2 is “downregulate SOD2 levels”. The cell death result in test [3] is on record as “did not induce cell death”; in test [4], 75-80%; in test [5], “triggered significant death”; in the test with KRAS mutant A549 cells, “did not induce substantial death”; in the test with KRAS mutant HCT116 cells, “did not induce substantial death”. Moreover, the “cell death (Annexin V/PI)” value in test [6] is “enhanced the cytotoxic effects of Gamitrinib”. For the same molecule, the mitochondrial membrane potential entry in test [7] is “rapid and complete loss of mitochondrial membrane potential”. Also, in the test with NRAS mutant cells, the “anti-cancer activity as a single agent” value was “limited activity”.

With imetelstat, the efficacy entry in [8] is reported as “efficacy”. Further, the activity entry in test [9] was “limited activity”.

(Values after patent publication US20190282600A1, “COMBINATION THERAPIES TARGETING TERT DEPENDENCY FOR CANCER THERAPY” (The Wistar Institute of Anatomy and Biology, priority 2018, published 2019).)
